From patent publication US6218406A, “Farnesyl transferase inhibitors, their preparation, the pharmaceutical compositions which contain them and their use in the preparation of medicaments” (Aventis Pharma S.A., priority 1996, dated 2001)

Target: farnesyl transferase (Homo sapiens, UniProt P49354+P49356)
Experiment: Farnesyl transferase inhibition, [3H]-farnesylation of biotinylated K-ras C-terminal peptide (SPA assay)
Assay type: biochemical
Conditions: K-Ras substrate; 60 min at 37° C.; mean of two IC50 values; read-out: In vitro inhibitory activity (K-Ras) IC50
Procedure: The farnesyl transferase activity was measured by the amount farnesylated of K-ras substrate or of substrate derived from the peptide corresponding to its C-terminal part, the farnesyl group being introduced by farnesyl pyrophosphate (FPP).
It was then brought into contact with PVT-streptavidin (Amersham)® beads and was quantified by proximity scintillation (SPA assay) between the tritium and the PVT beads, by virtue of the streptavidin/biotin interaction.
Experimentally, farnesyl transferase purified according to the appended protocol was diluted, for this assay, to a concentration such that a consumption of substrates of less than 30% was obtained.
The reaction, carried out in Optiplates 96° microtitration plates, was initiated by the enzyme and lasted sixty minutes at 37° C. It was stopped by addition of 150 μl of mixture of a blocking buffer at pH 4 composed of 0.2M H3 PO4, 1.5 mM MgCl2, 0.5% (w/v) BSA, 0.05% (w/v) sodium azide containing 200 μg of PVT-streptavidin beads.
After slow agitation for thirty minutes (in order to remove the chemiluminescence), the plates were read as [^3 H]CPM in a Top Count® (Packard) scintillation counter for microplates, where they were converted into [^3 H]DPM from a range of coloured agent attenuating the scintillation (quenching).
The percentages of inhibition were calculated with respect to an inhibitor-free control after subtraction from all the values of that of a blank which only contained the substrates and the buffer.
The IC50 values were calculated or measured, from the inhibitions obtained at nine different concentrations, with Enzfitter® or Grafit® software. The IC50 values which appear in the results are the mean of measurements and calculations of two IC50 values.

Row | SMILES | IC50
1 | C=C(C(=O)N1C[C@@H]2[C@]3(c4ccc(Cl)c(F)c4)CC[C@@H](c4ccccc43)[C@]2(C(=O)OC)C1)c1ccccc1OC (racemic) [Example 66, methyl (3aRS,4SR,9SR,9aRS)-9-(4-chloro-3-fluorophenyl)-4,9-ethano-2-[2-(2-methoxyphenyl)-propenoyl]-2,3,3a,4,9,9a-hexahydro-1H-benzo[f]isoindole-3a-carboxylate] | 379 nM
2 | C=C(C(=O)N1C[C@@H]2[C@]3(c4ccc(OC)c(C)c4)CC[C@@H](c4ccccc43)[C@]2(C(=O)O)C1)c1ccccc1OC (racemic) [Example 54, (3aRS,4SR,9SR,9aRS)-4,9-ethano-2-[2-(2-methoxyphenyl)propenoyl]-9-(4-methoxy-3-methylphenyl)-2,3,3a,4,9,9a-hexahydro-1H-benzo[f]isoindole-3a-carboxylic Acid] | 78 nM
3 | C=C(C(=O)N1C[C@@H]2[C@]3(c4cccc(Br)c4)CC[C@@H](c4ccccc43)[C@]2(C(=O)OC)C1)c1ccccc1OC (racemic) [Example 83, methyl (3aRS,4SR,9SR,9aRS)-9-(3-bromophenyl)-4,9-ethano-2-[2-(2-methoxyphenyl)propenoyl]-2,3,3a,4,9,9a-hexahydro-1H-benzo[f]isoindole-3a-carboxylate] | 319 nM
4 | C=C(C(=O)N1C[C@@H]2[C@@]3(c4ccc(C)cc4)CC[C@@H](c4ccccc43)[C@]2(C(=O)O)C1)c1ccccc1OC (racemic) [Example 2, (3aRS,4SR,9RS,9aRS)-4,9-ethano-2-[2-(2-methoxyphenyl)propenoyl]-9-(4-methylphenyl)-2,3,3a,4,9,9a-hexahydro-1H-benzo[f]isoindole-3a-carboxylic Acid] | 45 nM
5 | C=C(C(=O)N1C[C@@H]2[C@]3(c4ccc5c(c4)OCO5)CC[C@@H](c4ccccc43)[C@]2(C(=O)O)C1)c1ccccc1OC (racemic) [Example 70, (3aRS,4SR,9SR,9aRS)-9-(1,3-benzodioxol-5-yl)-4,9-ethano-2-[2-(2-methoxyphenyl)propenoyl]-2,3,3a,4,9,9a-hexahydro-1H-benzo[f]isoindole-3a-carboxylic Acid] | 67 nM
6 | COc1ccc([C@]23CC[C@H](c4ccccc42)[C@@]2(C(=O)O)CN(C(=O)Cc4ccccc4OC)C[C@@H]32)cc1 (relative stereo) [Example 6, (3aRS,4SR,9SR,9aRS)-4,9-ethano-9-(4-methoxyphenyl)-2-[(2-methoxyphenyl)acetyl]-2,3,3a,4,9,9a-hexahydro-1H-benzo[f]isoindole-3a-carboxylic Acid] | 57.5 nM
7 | C=C(C(=O)N1C[C@@H]2[C@]3(c4ccc(Cl)c(Cl)c4)CC[C@@H](c4ccccc43)[C@]2(C(=O)O)C1)c1ccccc1OC (racemic) [Example 51, (3aRS,4SR,9SR,9aRS)-9-(3,4-dichlorophenyl)-4,9-ethano-2-[2-(2-methoxyphenyl)-propenoyl]-2,3,3a,4,9,9a-hexahydro-1H-benzo[f]isoindole-3a-carboxylic Acid] | 68 nM
8 | COc1ccccc1CC(=O)N1C[C@H]2[C@@]3(c4ccc(SC)cc4)CC[C@H](c4ccccc43)[C@@]2(C(=O)O)C1 (relative stereo) [Example 7, (3aRS,4SR,9SR,9aRS)-4,9-ethano-2-[(2-methoxyphenyl)acetyl]-9-(4-methylsulphanylphenyl)-2,3,3a,4,9,9a-hexahydro-1H-benzo[f]isoindole-3a-carboxylic Acid] | 50 nM
9 | C=C(C(=O)N1C[C@@H]2[C@]3(c4ccc(C(F)(F)F)cc4)CC[C@@H](c4ccccc43)[C@]2(C(=O)NNc2ccccc2)C1)c1ccccc1OC (relative stereo) [Example 44, (3aRS,4SR,9SR,9aRS)-4,9-ethano-2-[2-(2-methoxyphenyl)propenoyl]-9-[4-(trifluoromethyl)phenyl]-2,3,3a,4,9,9a-hexahydro-1H-benzo[f]isoindole-3a-N'-phenylcarbohydrazide] | 369 nM
10 | C=C(C(=O)N1C[C@@H]2[C@]3(c4ccc5ccccc5c4)CC[C@@H](c4ccccc43)[C@]2(C(=O)OC)C1)c1ccccc1OC (racemic) [Example 45, methyl (3aRS,4SR,9SR,9aRS)-4,9-ethano-2-[2-(2-methoxyphenyl)propenoyl]-9-(2-naphthyl)-2,3,3a,4,9,9a-hexahydro-1H-benzo[f]isoindole-3a-carboxylate] | 181 nM
11 | C=C(C(=O)N1C[C@@H]2[C@]3(c4ccc5c(c4)OCCO5)CC[C@@H](c4ccccc43)[C@]2(C(=O)NCc2cccnc2)C1)c1ccccc1OC (single isomer, unassigned) [Example 35, levorotatory enantiomer of (3aRS,4SR,9SR,9aRS)-9-(2,3-dihydro-1,4-benzodioxin-6-yl)-4,9-ethano-2-[2-(2-methoxyphenyl)propenoyl]-2,3,3a,4,9,9a-hexahydro-1H-benzo[f]isoindole-3a-N-(3-pyridylmethyl)carboxamide] | 84 nM
12 | C=C(C(=O)N1C[C@H]2[C@@]3(c4ccc(C)s4)CC[C@@H](c4ccccc43)[C@]2(C(=O)OC)C1)c1ccccc1OC (racemic) [Example 47, methyl (3aRS,4SR,9SR,9aRS)-4,9-ethano-2-[2-(2-methoxyphenyl)propenoyl]-9-(5-methyl-2-thienyl)-2,3,3a,4,9,9a-hexahydro-1H-benzo[f]isoindole-3a-carboxylate] | 207 nM
13 | C=C(C(=O)N1C[C@@H]2[C@]3(c4cccc(C)c4)CC[C@@H](c4ccccc43)[C@]2(C(=O)OC)C1)c1ccccc1OC (racemic) [Example 68, methyl (3aRS,4SR,9SR,9aRS)-4,9-ethano-2-[2-(2-methoxyphenyl)propenoyl]-9-(3-methylphenyl)-2,3,3a,4,9,9a-hexahydro-1H-benzo[f]isoindole-3a-carboxylate] | 431 nM
14 | C=C(C(=O)N1C[C@@H]2[C@]3(c4ccc(C)cc4)CC[C@@H](c4ccccc43)[C@]2(C(N)=O)C1)c1ccccc1OC (racemic) [Example 15, (3aRS,4SR,9SR,9aRS)-3a-carbamoyl-4,9-ethano-2-[2-(2-methoxyphenyl)propenoyl]-9-(4-methylphenyl)-2,3,3a,4,9,9a-hexahydro-1H-benzo[f]isoindole] | 170 nM
15 | C=C(C(=O)N1C[C@@H]2[C@]3(c4ccc5c(c4)OCCO5)CC[C@@H](c4ccccc43)[C@]2(C(=O)NCc2cccs2)C1)c1ccccc1OC (relative stereo) [Example 36, (3aRS,4SR,9SR,9aRS)-9-(2,3-dihydro-1,4-benzodioxin-6-yl)-4,9-ethano-2-[2-(2-methoxyphenyl)propenoyl]-2,3,3a,4,9,9a-hexahydro-1H-benzo[f]isoindole-3a-N-(2-thienylmethyl)carboxamide] | 120 nM
16 | C=C(C(=O)N1C[C@H]2[C@@]3(c4ccc(OC)cc4)CC[C@H](c4ccccc43)[C@@]2(C(=O)NCc2cccnc2)C1)c1ccccc1OC (relative stereo) [Example 76, (3aRS,4SR,9SR,9aRS)-4,9-ethano-9-(4-methoxyphenyl)-2-[2-(2-methoxyphenyl)propenoyl]-2,3,3a,4,9,9a-hexahydro-1H-benzo[f]isoindole-3a-N-(3-pyridylmethyl)carboxamide] | 244 nM
17 | C=C(C(=O)N1C[C@@H]2[C@]3(c4ccc(C)c(C)c4)CC[C@@H](c4ccccc43)[C@]2(C(=O)O)C1)c1ccccc1OC (racemic) [Example 72, (3aRS,4SR,9SR,9aRS)-9-(3,4-dimethylphenyl)-4,9-ethano-2-[2-(2-methoxyphenyl)propenoyl]-2,3,3a,4,9,9a-hexahydro-1H-benzo[f]isoindole-3a-carboxylic Acid] | 98 nM
18 | C=C(C(=O)N1C[C@H]2[C@@]3(c4ccc(N(C)C)cc4)CC[C@H](c4ccccc43)[C@@]2(C(=O)OC)C1)c1ccccc1OC (relative stereo) [Example 94, methyl (3aRS,4SR,9SR,9aRS)-9-(4-N,N-dimethylaminophenyl)-4,9-ethano-2-[2-(2-methoxyphenyl)propenoyl]-2,3,3a,4,9,9a-hexahydro-1H-benzo[f]-isoindole-3a-carboxylate] | 557 nM
19 | C=C(C(=O)N1C[C@H]2[C@@]3(c4cccc(N(C)C)c4)CC[C@H](c4ccccc43)[C@@]2(C(=O)O)C1)c1ccccc1OC (relative stereo) [Example 92, (3aRS,4SR,9SR,9aRS)-9-(3-N,N-dimethylaminophenyl)-4,9-ethano-2-[2-(2-methoxyphenyl)propenoyl]-2,3,3a,4,9,9a-hexahydro-1H-benzo[f]isoindole-3a-carboxylic Acid] | 28 nM
20 | COc1ccccc1CC(=O)N1C[C@@H]2[C@]3(c4ccc(C(C)C)cc4)CC[C@@H](c4ccccc43)[C@]2(C(=O)O)C1 (racemic) [Example 56, (3aRS,4SR,9SR,9aRS)-4,9-ethano-9-(4-isopropylphenyl)-2-[(2-methoxyphenyl)acetyl]-2,3,3a,4,9,9a-hexahydro-1H-benzo[f]isoindole-3a-carboxylic Acid] | 589 nM
21 | C=C(C(=O)N1C[C@H]2[C@@]3(c4ccc(OC)cc4)CC[C@H](c4ccccc43)[C@@]2(C(=O)NNc2ccccc2)C1)c1ccccc1OC (relative stereo) [Example 77, (3aRS,4SR,9SR,9aRS)-4,9-ethano-9-(4-methoxyphenyl)-2-[2-(2-methoxyphenyl)propenoyl]-2,3,3a,4,9,9a-hexahydro-1H-benzo[f]isoindole-3a-N'-phenylcarbohydrazide] | 204 nM
